{
  "source": "patent US9051240B2",
  "about": "“Substituted 2-[2-(phenyl) ethylamino] alkaneamide derivatives and their use as sodium and/or calcium channel modulators” (Newron Pharmaceuticals S.P.A., priority 2007, dated 2015)",
  "key": {"L-type calcium channels": {"test_system": "L-type calcium channels", "assay": "Calcium channel influx assay (fluorescence, AtT20 cell line)", "type": "cell-based, mouse", "conditions": "AtT20 cells, 100 mM KCl depolarization; read-out: Ca++ influx IC50", "experimental": "AtT20/D16v-F2 mouse pituitary tumour cell line preferentially expresses L-type calcium channels.\nAtT20 cells were grown in DMEM with 10% of FBS, 4 mM glutamine. The cells were seeded at 200,000 cells/well on 96 poly-L-lysine-coated plates and further incubated for 18-24 h, before use.\nThe Ca^++ Kit Assay (Molecular Devices), which is based on a fluorescent calcium indicator to detect the calcium influx determined by depolarizing conditions, was used for the assay.\nCells were incubated with the calcium dye loading for 30 min at 37° C. Then, ω-conotoxin alone (1 μM) or in presence of nifedipine (as reference standard) or test compound were added for further 15 min.\nThe fluorescence (excitation: 485-emission: 535 nm wavelength) was measured before and after (30-40 sec) the automated injection of 100 mM KCl depolarizing solution using a Victor plate reader (Perkin Elmer).\nThe inhibition curves were calculated from 5 concentrations, each in triplicate, and the IC50 determined using linear regression analysis."}, "[1]": {"test_system": "Na+ currents in ND7/23 cells (TTX-s)", "assay": "Patch clamp evaluation of Na+ currents blockade in ND7/23 cell line", "type": "cell-based, rat", "experimental": "ND7/23 (ECACC No 92090903 from SIGMA), is a hybrid cell line derived from a neonatal rat DRG fused with the mouse neuroblastoma N18Tg2 (Wood et al., Proc. Biol. Sci., 1990 September, 241(1302), 187-194).\nThe molecular identity of the channels responsible for the TTX-s conductance is unknown but it is presumed that TTX-s conductance arises from the activity of a mixed population of sodium channels.\nCells are routinously maintained in DMEM with 10% of FBS, 4 mM glutamine, 1 mM sodium piruvate. The day before the patch clamp experiment cells are detached and seeded at 100,000 cells/polylysine-coated 35 mm Petri dish.\nExperiments on ND7/23 cells were carried out using standard whole cell patch clamp methods (Hamill et al., Pfugers Arch., 1981 August, 391(12), 85-100), as described in previous section.\nTo test the effect of compounds on sodium currents in ND7/23 cells, holding membrane potential was set at −90 mV, then a two step protocol was used to determine the voltage dependence of the block. Sodium currents were activated by a 30 ms step pulse to 0 mV (test pulse) from a 2000 ms preconditioning potential of −110 mV (resting condition) and a potential of ˜−70 mV (half maximal steady-state condition).\nTonic block of resting and depolarized currents at a given drug concentration was calculated as the difference between the peak Na^+ current in the control external bath solution and peak currents with the test substance divided by control peak.\nDrug concentration-inhibition curves were obtained by plotting tonic blocks in the resting and depolarized condition, versus drug concentrations. Dose-response curves were fitted to the tonic block data, according to the logistic equation: y=A2+(A1−A2)/[1+(x/IC50)p]. A1 and A2 are fixed values of 0 and 1 corresponding to 0 and 100% current inhibition, x is the drug concentration, IC50 is the drug concentration resulting in 50% current inhibition and p is the corresponding slope factor.\nThe apparent affinity of drug for the inactivated state (Ki) was calculated according to the equation 1/Kdep=h/Kr+(1−h)/Ki where Kr is the affinity of drug for the resting/closed state; Kdep is the IC50 in the depolarized condition, h and (1−h) are the fractions of channels present at the rest. and dep. potentials, respectively.\nControl bath solution contained (mM): NaCl 80, Choline HCl 40, CaCl2 1.3, MgCl2 2, KCl 2, CdCl2 0.4, NiCl2 0.3, TEACl 20, Hepes 10, Glucose 10.\nInternal pipette solution consisted of (mM): CsF 65, CsCl 65, NaCl 10, CaCl2 1.3, MgCl2 2, Hepes 10, EGTA 10, MgATP 1.\nCompounds were dissolved as stock solutions (20 mM) in DMSO. They were diluted to the final concentrations in the external solution."}},
  "note": "Read-outs that look alike come from different tables or passages of the source.",
  "data": [
    {"smiles": "C[C@H](NCc1ccc(OCc2ccccc2F)cc1)C(N)=O", "note": "[ralfinamide, (S)-(+)-2-[4-(2-fluorobenzyloxy)-benzylamino]-propanamide, reference compound]", "values": [
      {"measurement": "IC50", "setting": "L-type calcium channels", "result": 26, "unit": "µM"},
      {"measurement": "Ki", "setting": "[1]; calculated from Kr and Kdep, read-out: Ki (apparent affinity for the inactivated state)", "result": 8.3, "unit": "µM"},
      {"measurement": "IC50", "setting": "[1]; read-out: IC50 depolarized, preconditioning potential ~-70 mV", "result": 15, "unit": "µM"},
      {"measurement": "IC50", "setting": "[1]; read-out: IC50 resting (Kr), preconditioning potential -110 mV", "result": 149, "unit": "µM"}
    ]}
  ]
}
